US20250108050A1, “COMBINATION OF EGFR INHIBITOR AND MEK INHIBITOR FOR USE IN THE TREATMENT OF NRAS MUTATED CANCER” (ASTRAZENECA AB, priority 2014, published 2025)

Columns and labels:
KRAS = experiment: siRNA knockdown, western blot of KRAS expression; assay type: cell-based, human; details: 20 nM siRNA, 48 hours; PC9, PC9 gefitinib-resistant and PC9 AZD9291-resistant cells
Method: (§1) PC9, PC9 gefitinib-resistant and PC9 AZD9291-resistant cells were plated at 5×10^5 cells per well in 6 well plates in 2 mls per well of growth media supplemented with EGFR inhibitor where appropriate (resistant cells were grown in the presence of EGFR inhibitor). The cells were incubated over night at 37° C., 5% CO2. The following day the cells were treated with a final concentration of 20 nM of siRNA from Dharmacon as detailed in Table 7.
(§2) Each siRNA construct was prepared in Optimem (Life Technologies) media using RNA iMAX (Invitrogen) as transfection reagent. For each well: 2.5 μl of siRNA (20 μM stock) was mixed with 250 μL of Optimem; and 2.5 μL of RNA iMAX was mixed with 250 μL of Optimem. The 2 solutions were mixed together by pipetting and allowed to stand for 5 minutes at room temperature. The final 500 μL solution was then pipetted into the appropriate 2 mL of growth media in the 6 well plates. The plates were swirled gently and further incubated over night at 37° C., 5% CO2. The following day each well of cells was harvested and the cell number counted.
(§3) The following day, lysates were prepared from the 6 well plates so that knockdown of protein expression could be assessed following 48 hours treatment with siRNA. The lysates were analysed by western blot for levels of: phosphorylated EGFR, phosphorylated ERK, NRAS and KRAS. […]

NRAS = experiment: siRNA knockdown, western blot of NRAS expression; assay type: cell-based, human; details: 20 nM siRNA, 48 hours; PC9, PC9 gefitinib-resistant and PC9 AZD9291-resistant cells
Method: as §1, §2, §3

PC9 cells [1] = experiment: Growth inhibition of PC9 cells over expressing E63K mutant NRAS (sytox green); assay type: cell-based, human; details: 100 nM AZD9291 or 300 nM gefitinib, 96 hours, vs control construct
Method: PC9 cells were transfected with control DNA construct, pcDNA 3.1+ control, or a construct designed to express E63K mutant NRAS, pcDNA 3.1+/NRAS E63K, (Life Technologies Ltd.). For 96 hour expression MaxCyte transfection technology was used to electroporate the PC9 cells. PC9 cells were passaged the day before the transfection. On the day of the transfection cells were harvested and resuspended at 9×10^7 cells per 600 μL MaxCyte buffer. 100 μL of cell suspension was transferred to a MaxCyte cuvette and the cells electroporated with 20 μg DNA construct. Following electroporation the cells for each condition were transferred to a 6 well plate and incubated at 37° C. for 30 minutes after which they were seeded in a 6 well plate at 4×10^5 cells per well. Following over night incubation the cells were harvested and replated in 384 well plate at 1000 cells/well. […] A live cell number was determined using the sytox green method as described hereinbefore.

active NRAS [2] = experiment: RAS activation assay (GST-RAS binding domain pull down, western blot) in resistant PC-9 cells with E63K or G12V NRAS; assay type: cell-based, human; details: mutant NRAS (E63K or G12V) resistant PC-9 cells; 160 nM for 2 hours
Method: (§4) PC9 and PC9 AZD9291 resistant cells were cultured in media containing no AZD9291 for 4 days. Cells were then plated into 6 well plates and serum starved overnight. The following day the cells were treated for 2 hours with media supplemented with or without 160 nM AZD9291. Lysates were prepared and active NRAS isolated using a GST-RAS binding domain pull down assay (Thermo Scientific). Pull down lysates were analysed by western blot using an NRAS specific antibody.

PC9 cells [3] = experiment: cells; details: Homo sapiens, PC-9, read-out: concentration required to inhibit growth of PC9 cells by 50% (EC50)
Method: PC9 cells were seeded at 5×10^5 cells in multiple fresh T75 flasks in growth media and incubated at 37° C., 5% CO2.

active NRAS [4] = experiment: RAS activation assay (GST-RAS binding domain pull down, western blot) in parental PC-9 cells; assay type: cell-based, human; details: 160 nM for 2 hours
Method: as §4

PC9_IRGM (NRAS WT) = experiment: Sytox Green live cell number assay, selumetinib titration; assay type: cell-based; details: Homo sapiens, with originating EGFR inhibitor, 72 hours
Method: (§5) The effects of a panel of canonical pathway inhibitors on cell growth and survival was measured using a cell assay using Sytox Green staining as an end point.
(§6) Cell lines were plated in 384 well plates at 1000 cells per well in 70 μL per well of RPMI media containing 10% foetal calf serum, 2 mM L-glutamine and originating EGFR inhibitor.
(§7) The cells were allowed to attach overnight at 37° C., 5% CO2. The following day titrations of test compound were added to the assay plates using an Echo Liquid Handler Labcyte (California, USA) and the treated cells incubated for a further 72 hours at 37° C., 5% CO2. Each compound was tested as an 11 point dose response with a top concentration of 10 μM and 1 in 3 dilutions. Following 72 hours incubation of the compound treated plates, 5 μL of 2 μM SYTOX Green Nucleic Acid Stain, Life Technologies (Paisley, UK) was added per well and the plates incubated at room temperature for one hour. The number of fluorescent cells per well was measured on the Acumen TTP LabTech Ltd. (Melbourn, UK) this number representing the dead cell count. 10 μL of 0.25% Saponin Sigma (Dorset, UK) was added per well and the plates incubated over night at room temperature. The total number of fluorescent cells per well was acquired on the Acumen. The number of dead cells was subtracted from the total number of cells and the live cell number plotted to determine EC50 values from dose response curves.

PC9 (NRAS WT) = experiment: as above; assay type: cell-based; details: Homo sapiens, PC9 (NRAS WT) parental, 72 hours
Method: as §5, §6, §7

PC9_IRLR (NRAS E63K) = experiment: as above; assay type: cell-based; details: Homo sapiens, with originating EGFR inhibitor, 72 hours
Method: as §5, §6, §7

[5] = test system: PC9_9291R_LOB1 (NRAS E63K); experiment: as above; assay type: cell-based; details: Homo sapiens, with originating EGFR inhibitor, 72 hours
Method: as §5, §6, §7

[6] = test system: PC9_IR4_9291R_3 (NRAS WT gain); experiment: as above; assay type: cell-based; details: Homo sapiens, with originating EGFR inhibitor, 72 hours
Method: as §5, §6, §7

[7] = test system: PC9_afatinib_5 (NRAS gain); experiment: as above; assay type: cell-based; details: Homo sapiens, with originating EGFR inhibitor, 72 hours
Method: as §5, §6, §7

[8] = test system: PC9_IR4_9291R_2 (NRAS WT gain); experiment: as above; assay type: cell-based; details: Homo sapiens, with originating EGFR inhibitor, 72 hours
Method: as §5, §6, §7

PC9_9291R_3 (NRAS G12V) = experiment: as above; assay type: cell-based; details: Homo sapiens, with originating EGFR inhibitor, 72 hours
Method: as §5, §6, §7

[9] = test system: PC9_9291R_LOB3 (NRAS G12R); experiment: as above; assay type: cell-based, human
Method: as §5, §6
as §7, with “The total number of fluorescent cells per well was acquired on the Acumen. The number of dead cells was subtracted from the total number of cells and the live cell number plotted to determine EC50 values from dose response curves.” left out
An AZD9291-resistant PC9 cell line was prepared using standard methods as illustrated hereinbefore. A range of such resistant cell populations were cultured and analysed.

Molecule: KRAS_1: siRNA from Dharmacon, J-005069-10, sequence GAAGUUAUGGAAUUCCUUU, SEQ ID NO: 16 (listed as RNA, chemistry not given here; listed as Homo sapiens)
- KRAS expression (western blot) (KRAS): knockdown
- NRAS expression (western blot) (NRAS): no affect

Molecule: C=CC(=O)Nc1cc(Nc2nccc(-c3cn(C)c4ccccc34)n2)c(OC)cc1N(C)CCN(C)C [AZD9291, N-(2-{2-dimethylaminoethyl-methylamino}-4-methoxy-5-{[4-(1-methylindol-3-yl)pyrimidin-2-yl]amino}phenyl)prop-2-enamide]
- cell growth inhibition when cells over expressed E63K mutant NRAS (PC9 cells [1]): reduced
- active NRAS (active NRAS [2]): not associated with corresponding decrease in active NRAS
- phosphorylated EGFR (active NRAS [2]): decrease
- EC50 (PC9 cells [3]): 10 nM
- active NRAS (active NRAS [4]): decrease
- phosphorylated EGFR (active NRAS [4]): decrease

Molecule: Cn1cnc2c(F)c(Nc3ccc(Br)cc3Cl)c(C(=O)NOCCO)cc21 [Selumetinib, 5-[(4-bromo-2-chlorophenyl)amino]-4-fluoro-N-(2-hydroxyethoxy)-1-methyl-1H-benzimidazole-6-carboxamide]
- EC50 (PC9_IRGM (NRAS WT)): 7240 nM
- EC50 (PC9 (NRAS WT)): 6950 nM
- EC50 (PC9_IRLR (NRAS E63K)): 620 nM
- EC50 [5]: 167 nM
- EC50 [6]: 130 nM
- EC50 [7]: 890 nM
- EC50 [8]: 540 nM
- EC50 (PC9_9291R_3 (NRAS G12V)): 1400 nM
- increased sensitivity as compared to the parental cell line ([9]; AZD9291-resistant PC9 population with NRAS G12R vs parental cell line): > 5 fold
- EC50 ([9]; Homo sapiens, PC9_9291R_LOB3 (NRAS G12R), with originating EGFR inhibitor, 72 hours): 140 nM
